This is an account of results in publication PMC8708580, “Structure Revision and Protein Tyrosine Phosphatase Inhibitory Activity of Drazepinone” (Marine Drugs, 2021).

Structures are written as SMILES. Like-named read-outs stand apart in the source and are kept apart here.

The target in series [1] is T1, PTP1B (Homo sapiens, UniProt P18031).
T1 sequence (P18031 1-435): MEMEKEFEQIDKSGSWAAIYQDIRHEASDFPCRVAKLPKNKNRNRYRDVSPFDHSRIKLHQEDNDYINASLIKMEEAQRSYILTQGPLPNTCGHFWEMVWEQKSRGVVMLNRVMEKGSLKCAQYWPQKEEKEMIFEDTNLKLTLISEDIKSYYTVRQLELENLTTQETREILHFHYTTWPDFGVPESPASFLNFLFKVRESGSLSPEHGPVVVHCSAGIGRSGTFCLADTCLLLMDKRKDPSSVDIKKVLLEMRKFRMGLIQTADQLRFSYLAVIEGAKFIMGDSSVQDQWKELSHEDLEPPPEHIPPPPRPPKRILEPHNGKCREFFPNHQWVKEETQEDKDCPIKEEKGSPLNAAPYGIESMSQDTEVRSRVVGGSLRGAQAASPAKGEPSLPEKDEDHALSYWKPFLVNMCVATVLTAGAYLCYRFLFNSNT
In words: PTP inhibitory activity assay, PTP1B. The class given is biochemical. To be noted: in vitro; Na3VO4 positive control. How it is done: Thus, the isolated compounds (+)-1 and (−)-1 were tested for their PTP inhibitory activity against PTP1B, TCPTP, SHP1, and CD45.
PTP inhibitory activity of (+)-1 and (−)-1 against PTP1B, TCPTP, SHP1, and CD45 was tested in the same way as that described in the literature.

Series [2] has as its target T2, TCPTP (Homo sapiens, UniProt P17706).
T2 sequence (P17706 1-415): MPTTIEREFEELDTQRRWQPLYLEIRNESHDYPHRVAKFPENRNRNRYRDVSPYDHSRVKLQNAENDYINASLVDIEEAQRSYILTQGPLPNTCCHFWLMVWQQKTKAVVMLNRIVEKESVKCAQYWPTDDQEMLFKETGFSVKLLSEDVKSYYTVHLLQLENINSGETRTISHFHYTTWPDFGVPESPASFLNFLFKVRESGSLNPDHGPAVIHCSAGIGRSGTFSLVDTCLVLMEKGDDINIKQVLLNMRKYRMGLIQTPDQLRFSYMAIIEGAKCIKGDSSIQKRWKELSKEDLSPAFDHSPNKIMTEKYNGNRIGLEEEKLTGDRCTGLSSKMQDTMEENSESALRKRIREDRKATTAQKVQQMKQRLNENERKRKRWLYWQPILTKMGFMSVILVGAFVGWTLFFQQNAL
Description: PTP inhibitory activity assay, TCPTP. The class given is biochemical. The following applies: in vitro; Na3VO4 positive control. How it is done:
(§1) Protein tyrosine phosphatases (PTPs), including PTP1B, T-cell PTP (TCPTP), Src homology-2 domain-containing PTP-1 (SHP1), and CD45 PTP (CD45), a family of enzymes that hydrolytically remove phosphate groups from proteins, have attracted much attention recently for drug discovery. […] Thus, the isolated compounds (+)-1 and (−)-1 were tested for their PTP inhibitory activity against PTP1B, TCPTP, SHP1, and CD45.
(§2) PTP inhibitory activity of (+)-1 and (−)-1 against PTP1B, TCPTP, SHP1, and CD45 was tested in the same way as that described in the literature. Na3VO4 was used as the positive control.

For series [3], the target named is T3, CD45 (Homo sapiens, UniProt P08575).
T3 sequence (P08575 26-1306): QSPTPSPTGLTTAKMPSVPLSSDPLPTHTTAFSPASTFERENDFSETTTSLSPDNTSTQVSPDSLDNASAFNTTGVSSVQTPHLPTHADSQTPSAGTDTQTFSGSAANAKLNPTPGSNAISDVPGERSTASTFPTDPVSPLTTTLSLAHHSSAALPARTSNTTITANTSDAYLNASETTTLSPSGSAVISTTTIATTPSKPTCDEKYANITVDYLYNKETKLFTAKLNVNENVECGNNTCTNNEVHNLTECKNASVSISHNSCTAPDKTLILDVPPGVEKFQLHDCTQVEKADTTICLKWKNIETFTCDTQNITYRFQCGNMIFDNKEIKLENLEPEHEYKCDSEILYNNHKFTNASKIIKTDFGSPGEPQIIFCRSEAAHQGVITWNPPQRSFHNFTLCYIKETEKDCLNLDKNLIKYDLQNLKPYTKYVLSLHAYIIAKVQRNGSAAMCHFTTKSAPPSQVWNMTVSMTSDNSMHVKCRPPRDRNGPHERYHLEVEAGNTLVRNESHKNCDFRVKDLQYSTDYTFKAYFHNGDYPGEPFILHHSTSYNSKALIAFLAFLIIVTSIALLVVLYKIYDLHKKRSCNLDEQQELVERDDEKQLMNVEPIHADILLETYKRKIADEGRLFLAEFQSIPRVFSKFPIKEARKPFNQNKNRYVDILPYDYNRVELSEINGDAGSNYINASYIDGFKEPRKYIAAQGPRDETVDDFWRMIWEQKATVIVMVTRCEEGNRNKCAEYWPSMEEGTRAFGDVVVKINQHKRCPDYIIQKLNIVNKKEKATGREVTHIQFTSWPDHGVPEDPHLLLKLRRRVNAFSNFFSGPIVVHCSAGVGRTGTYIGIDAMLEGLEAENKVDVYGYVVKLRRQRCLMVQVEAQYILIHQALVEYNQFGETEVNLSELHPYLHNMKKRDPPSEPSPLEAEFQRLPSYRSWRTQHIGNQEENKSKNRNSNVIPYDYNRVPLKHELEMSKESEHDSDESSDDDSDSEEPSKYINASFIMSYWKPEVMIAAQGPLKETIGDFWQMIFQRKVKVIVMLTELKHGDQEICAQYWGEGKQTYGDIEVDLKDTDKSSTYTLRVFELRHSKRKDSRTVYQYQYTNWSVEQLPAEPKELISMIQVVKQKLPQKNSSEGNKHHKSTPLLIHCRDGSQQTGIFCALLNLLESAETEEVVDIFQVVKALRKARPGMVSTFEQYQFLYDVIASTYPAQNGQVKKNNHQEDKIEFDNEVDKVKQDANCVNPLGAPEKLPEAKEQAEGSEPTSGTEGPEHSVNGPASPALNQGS
Description: PTP inhibitory activity assay, CD45. The class given is biochemical. How it is done:
as §1, §2

Details of series [4]: method as in PMID 15771896. The following applies: at a concentration of 2.0 μg/μL; cited from earlier work.
Details of series [5]: method as in PMID 15771896. The following applies: at a concentration of 2.0 μg/μL; cited from earlier work. This is another data set of the same source.
Where [6] appears, read: in vitro, Na3VO4 positive control.

As usually defined, the IC50 is the concentration at which inhibition is half-maximal. Lower therefore signals greater potency in that assay. On to `CC1=CC2(C)Oc3c(-c4ccccc4)c[nH]c(=O)c3C2C1C` (single isomer, unassigned; (+)) [(+)-1], for which, in series [1], the concentration for half-maximal inhibition (IC50) is above 85.2 µM and the “IC50 PTP1B” value is “no activity”. For the same molecule, in series [2], the IC50 is above 85.2 µM and the “IC50 TCPTP” value is reported as “no activity”. For the same molecule, the half-maximal inhibitory concentration (IC50) in series [3] was above 85.2 µM. In series [3] (setting [6]), the “IC50 CD45” value is on record as “no activity”.

For `[Na+].[Na+].[Na+].[O]=[V]([O-])([O-])[O-]` [Na3VO4, reference compound], in series [2], the “IC50 TCPTP” value amounted to 3.13 mg/L. The “IC50 CD45” value in series [3] (setting [6]) stood at 6.25 mg/L.

On to `CC1=CC(C)C2c3cc4ccccc4cc3OC2(C)NC1=O` (stereo not shown) [drazepinone, Drazepinone], for which, in series [4], the herbicidal properties entry was “broad-spectrum herbicidal properties”. Further, the zootoxic activity entry in series [5] was “low zootoxic activity”.

In the case of `CC1=CC2(C)Oc3c(-c4ccccc4)c[nH]c(=O)c3C2C1C` (single isomer, unassigned; (-)) [(−)-1], the IC50 in series [1] is 5.32 µM; in series [2] it was 42.6 µM; in series [3] (setting [6]), above 85.2 µM.
